Experimental findings from PubChem BioAssay AID588780 (Sanford-Burnham Center for Chemical Genomics, 2011) are described below.

Each structure is given as a SMILES string. Active and inactive are the calls of the source.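 The calls were made as follows: active = compounds whose fitted half-maximal concentration in the cell-protection dose series is at or below a set limit; inactive = the rest.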

The assay concerns H9c2 cardiomyocytes, 2-deoxyglucose stress, ATP luminescence, 2 h. Nature of the assay: H9c2 cell survival under 2-deoxyglucose stress – uHTS hits, dose response (AID 588780).
For `COc1ccccc1-c1cc(C(=O)N/N=C/C=C/c2ccccc2[N+](=O)[O-])c2ccccc2n1`, the IC50 is > 79 µM (inactive).

Take `CC(=O)c1ccc(-c2[nH]c3ccccc3c2CCN2C(=O)c3ccccc3C2=O)cc1`: the IC50 was > 79 µM (inactive). In the case of `COc1ccc(CC(=O)NCC(=O)N/N=C/c2cc(Br)ccc2OC)cc1` it was > 79 µM (inactive); in that of `Cc1ccccc1OCC(=O)NNC(=O)Cn1[nH]c(=O)c2ccccc2c1=O`, > 79 µM (inactive). In the case of `COC(=O)c1ccc(N)c(N=CC2=C(O)CC(C)(C)CC2=O)c1` it was 10.8 µM; in that of `CCOc1ccc(/C=C/C(=O)c2cc(Br)ccc(=O)c2O)cc1`, > 79 µM (inactive); in that of `O=C(Nc1nc(-c2ccccn2)cs1)c1cccc(S(=O)(=O)N2CCOCC2)c1`, 41.5 µM (inactive).

As for `COc1ccc(/C=N/NC(=O)c2ccn[nH]2)cc1COc1ccc(Cl)cc1`, the IC50 is > 79 µM (inactive). For `CCOc1ccccc1N1CC(O)=C(c2nc3ccccc3s2)C1=N`, the IC50 is > 79 µM (inactive). Take `O=C(NC1CCCCC1)C(c1ccc2ncccc2c1)N(Cc1ccco1)C(=O)c1ccc2c(c1)OCCO2` (centres undefined): the IC50 is 31.4 µM (inactive). With `COCCn1ccc2c(OCC(=O)Nc3ccccc3OC)cccc2c1=O` the figure was 20.8 µM; with `O=C(C[C@H]1C/C=C\CC[C@H](Cc2ccc(F)cc2)C(=O)O[C@H](c2ccccc2)CNC1=O)N[C@H](CO)Cc1ccccc1`, > 79 µM (inactive); with `Cc1ccc(C)c(S(=O)(=O)N2CCN(C(=O)CCc3nc4ccccc4c(=O)[nH]3)CC2)c1`, > 79 µM (inactive).

In the case of `CCC(c1nnnn1Cc1ccccc1)N1CCC(n2c(=O)[nH]c3ccccc32)CC1` (centres undefined), the IC50 was > 79 µM (inactive).

Regarding `Cc1ccc(NC(=O)CSC(C)C(=O)OCc2cc(=O)oc3cc(O)ccc23)cc1` (centres undefined), the IC50 was > 79 µM (inactive). Regarding `COc1ccccc1OCC(=O)Nc1cccc(-c2nnc(-c3ccco3)o2)c1`, the IC50 was > 79 µM (inactive). With `O=C(O)c1nn(CCOc2ccc(Br)cc2)c(=O)c2ccccc12` the figure was > 79 µM (inactive); with `COc1cc(-c2nnc(-c3cc(-c4ccccc4)nc4ccccc34)o2)cc(OC)c1OC`, 5.22 µM; with `COc1ccc(-c2ccc(Nc3ccc(S(=O)(=O)N4CCCC4)cc3)nn2)cc1OC`, 25 µM. For `CN(CC(=O)Nc1cccc(F)c1)C(=O)CCc1nc2ccccc2c(=O)[nH]1`, the IC50 is > 79 µM (inactive). With `O=C(CCCSc1nc2sc3c(c2c(=O)[nH]1)CCC3)NCCCO`, the IC50 is > 79 µM (inactive).

Take `CCOC(=O)C1=C(CC)Nc2ccccc2N=C1NC(=O)c1ccc(S(=O)(=O)N(C)C)cc1`: the IC50 was > 79 µM (inactive).

In the case of `COc1ccc(NCc2n[nH]c(=O)c3ccccc23)cc1`, the IC50 is > 79 µM (inactive). With `O=C(Nc1cc(=O)c2ccccc2o1)N1CCCCC1` the figure was > 79 µM (inactive); with `CCOc1cc(NC(=O)C2CC2)c(OCC)cc1NC(=O)c1ccccn1`, > 79 µM (inactive).

Regarding `O=C1OCCN1C(=O)[C@H]1[C@H](c2ccc([N+](=O)[O-])cc2)C(c2cccc(Cl)c2)=NN1c1ccc(Br)cc1`, the IC50 is > 79 µM (inactive).

Consider `O=C(NN=Cc1ccc(N2CCOCC2)s1)c1ccc([N+](=O)[O-])cc1`, for which the IC50 was > 79 µM (inactive).

Consider `O=c1cc(-c2ccc([N+](=O)[O-])cc2)c2ccc(O)cc2o1`, for which the IC50 was > 79 µM (inactive). In the case of `CN1CCc2nc3ccccc3c(C(=O)OCC(=O)N(CCC#N)c3ccccc3)c2C1` it was 67.6 µM (inactive).

With `CCOC(=O)c1nc(Nc2ccc(C(=O)OC)cc2)c2ccccc2n1`, the IC50 is > 79 µM (inactive). With `COc1cc(-c2cc(C(=O)NCc3ccco3)c3ccccc3n2)cc(OC)c1OC` the figure was 16.6 µM; with `O=C(/C=C/c1ccc(Cl)c([N+](=O)[O-])c1)Nc1cccnc1`, > 79 µM (inactive); with `CC(Oc1cccc(Br)c1)C(=O)NNC(=O)c1ccccn1` (centres undefined), > 79 µM (inactive).

`O=C(CCc1nc2ccccc2c(=O)[nH]1)NNC(=O)COc1cccc(F)c1`: the IC50 is > 79 µM (inactive).

On to `CCCCn1c(NC(=O)c2ccccc2)nc2ccccc21`, for which the IC50 is > 79 µM (inactive). In the case of `O=C(COC(=O)c1ccc([N+](=O)[O-])o1)Nc1cccc(S(=O)(=O)N2CCCCC2)c1` it was > 79 µM (inactive); in that of `CC(=O)Nc1ccc(NS(=O)(=O)c2cc(-c3n[nH]c(=O)c4ccccc34)ccc2C)cc1`, > 79 µM (inactive). With `CCc1ccc(NC(=O)CSc2ccc(-c3ccccn3)nn2)cc1` the figure was > 79 µM (inactive). With `O=C(CCc1nc2ccccc2c(=O)[nH]1)Nc1ccc(F)c([N+](=O)[O-])c1` the figure was 6.81 µM; with `Cc1ccc(S(=O)(=O)N2CCOCC2)cc1C(=O)Nc1nc(-c2ccccn2)cs1`, 9.58 µM.

For the molecule `COc1ccc(-c2oc(=O)c3cc(OC)c(OC)cc3c2C#CCCO)cc1`, the IC50 is > 79 µM (inactive). With `NC(=O)c1nsc(C(=O)N(Cc2ccco2)C(C(=O)NCc2ccccc2)c2ccc(O)cc2)c1N` (centres undefined) the figure was 10.1 µM. With `Cn1c(/C=N/NC(=O)c2ccccc2)nc2ccccc21` the figure was > 79 µM (inactive); with `COc1ccccc1NC(=O)c1cc(-c2ccc(OC)c(OC)c2)nc2ccccc12`, > 79 µM (inactive); with `Cc1cnc(NC(=O)CSc2nc3ccccc3c(=O)[nH]2)s1`, > 79 µM (inactive). With `COc1ccc(/C=N/NC(=O)c2cccnc2)cc1CN1CCc2ccccc2C1` the figure was > 79 µM (inactive). With `CCOC(=O)C1=C(C)NC(C)=C(C(=O)OCCNC(=O)c2cccnc2)C1c1cccc([N+](=O)[O-])c1` (centres undefined), the IC50 was 28.6 µM. With `CC1CN(c2nn3c(=O)c4ccccc4nc3c3ccccc23)CC(C)O1` (centres undefined) the figure was > 79 µM (inactive); with `COc1ccccc1NC(=O)c1cc(-c2cc(OC)c(OC)c(OC)c2)nc2ccccc12`, > 79 µM (inactive); with `O=C(CCc1nc2ccccc2c(=O)[nH]1)N1CCN(c2ccccc2Cl)CC1`, > 79 µM (inactive). With `COc1cc(-c2nnc(-c3cc(OC)c(OC)c(OC)c3)o2)cc(OC)c1OC` the figure was > 79 µM (inactive).

On to `COc1ccc(-c2cc(C(=O)N(C)Cc3ccc(OC)c(OC)c3OC)c3ccccc3n2)cc1OC`, for which the IC50 is 10.4 µM. For the molecule `CCN(C[C@H]1N[C@@](CC)(C(=O)OC)[C@H]2C(=O)N(Cc3ccccc3)C(=O)[C@@H]12)S(=O)(=O)c1ccc(F)cc1`, the IC50 was > 79 µM (inactive). With `O=C(CCc1nc2ccccc2c(=O)[nH]1)Nc1ccc(Cl)c(Cl)c1` the figure was 20.6 µM; with `Oc1ccc(Cl)cc1C=Nc1ccc2c3c(cccc13)CC2`, > 79 µM (inactive). With `CC(OC(=O)CCc1nc2ccccc2c(=O)[nH]1)C(=O)Nc1ccc2c(c1)OCO2` (centres undefined) the figure was > 79 µM (inactive); with `CC(C)(C)OC(=O)NCCCCCNC(=O)c1[nH]cnc1C(=O)Nc1ccc(Cl)cc1`, > 79 µM (inactive); with `COc1ccccc1OP(=O)(Nc1cccnc1)Oc1ccccc1OC`, > 79 µM (inactive). Turning to `Cc1nn(C)cc1C(C(=O)NC1CCCCC1)N(C(=O)Cc1cccs1)c1ccc(Cl)cc1` (centres undefined), the half-inhibitory concentration (IC50) was 27.5 µM.
